According to patent US7977387B2, “Aminobenzophenone compounds” (Leo Pharma A/S, priority 2003, dated 2011):

Assays:
IL-1β = assay: Inhibition of IL-1β secretion in LPS stimulated peripheral blood mononuclear cells; type: cell-based; conditions: PBMC; LPS stimulated human peripheral blood mononuclear cells, 18 hours, ELISA; read-out: The median inhibition concentration (IC50, nM) of IL-1β
Summary of the method: (§1)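 Human PBMCs (5×10^5 cells/ml, RPMI 1640 + 2% FCS) pre-treated with compound 30 min, then stimulated with LPS ([…]) for 18 h. Secreted IL-1β and TNF-α quantified by ELISA; IC50 values calculated.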

[1] = test system: LPS induced TNF-α response; assay: In vivo screening model of LPS induced TNF-α response in mice; conditions: Mus musculus, mice (C3H/HeN), dosed 1 hour prior to LPS, plasma TNF-α 80-90 minutes after LPS, vs LPS treated control group, read-out: In vivo inhibition of LPS induced TNF-α production (in %)
Protocol: In Vivo Screening Model of LPS Induced TNF-α Response in Mice
To study the effect of compounds of the present invention in vivo, an in vivo screening model of LPS induced TNF-α response in mice was set up as follows: Groups of 6 mice (C3H/HeN, female, about 8 weeks (20 g), Bomholtgaard) were dosed with test compounds in suspension vehicle 1 hour prior to LPS administration (LPS from E. coli 055:B5, L-4005, Sigma). At time 0, the mice were dosed ip with 1.0 mg LPS/kg. After anesthetization with Hypnorm/Dormicum, the mice were bled from the periorbital venous plexus 80-90 minutes after LPS administration. The blood samples were sampled in EDTA stabilised tubes and centrifuged at 4000 rpm for 10 minutes at 4° C. The plasma level of TNF-α was analysed by ELISA. Compound 156 of WO 98/32730 was used as reference compound. The plasma level of TNF-α was determined using a sandwich ELISA. Microtiter plates were coated with a monoclonal antibody against mouse TNF-α, washed and blocked with a casein buffer. Samples of mouse TNF-α recombinant standards were added to the wells of the microtiter plates and incubated. All standards were tested in triplicate, all plasma samples in single. After sample and standard incubation, the plates were washed and incubated with biotinylated polyclonal secondary antibody against mouse TNF-α and washed. Enzyme conjugate was added to all wells and incubated. Substrate was added and the enzyme/substrate reaction stopped after 15 minutes at room temperature with 1M H2SO4. The colour development (OD) was measured at 450 nm on an ELISA reader and the background OD at 620 nm was subtracted. […] The results of the tested compounds are indicated as a percentage inhibition compared to an LPS treated control group. Compounds were tested at 10 mg/kg. The Mann-Whitney test was used to compare drug treated groups to the LPS treated control group (p<0.05).

TNF-α = assay: Inhibition of TNF-α secretion in LPS stimulated peripheral blood mononuclear cells; type: cell-based; conditions: PBMC; LPS stimulated human peripheral blood mononuclear cells, 18 hours, ELISA; read-out: The median inhibition concentration (IC50, nM) of TNF-α
Summary of the method: as §1

IC50 (IL-1β)	IC50 (TNF-α)	SMILES	inhibition at 10 mg/kg [1]
1.1 nM	0.4 nM	CSCCC(=O)Nc1ccc(C)c(C(=O)c2ccc(Nc3ccc(F)cc3F)cc2Cl)c1 [Compound 251, N-{3-[2-Chloro-4-(2,4-difluoro-phenylamino)-benzoyl]-4-methyl-phenyl}-3-methylsulfanyl-propionamide]	49%
2 nM	1.3 nM	Cc1cc(F)ccc1Nc1ccc(C(=O)c2cc(C(=O)NCC3CCCO3)ccc2C)c(Cl)c1 (centres unmarked) [Compound 104, 3-[2-Chloro-4-(4-fluoro-2-methylphenylamino)benzoyl]-4-methyl-N-(tetrahydrofuran-2-ylmethyl)benzamide]	95%
8.9 nM	1.6 nM	CCC(CO)NC(=O)c1ccc(C)c(C(=O)c2ccc(Nc3ccc(F)cc3F)cc2Cl)c1 (centres unmarked) [Compound 153, 3-[2-Chloro-4-(2,4-difluoro-phenylamino)-benzoyl]-N-(1-hydroxymethyl-propyl)-4-methyl-benzamide]	86%
2.5 nM	2 nM	COc1ccc(C(=O)NCCO)cc1C(=O)c1ccc(Nc2c(F)cccc2F)cc1Cl [Compound 173, 3-[2-Chloro-4-(2,6-difluoro-phenylamino)-benzoyl]-N-(2-hydroxy-ethyl)-4-methoxy-benzamide]	90%
0.9 nM	0.4 nM	Cc1ccc(NC(=O)NC2CCCCC2)cc1C(=O)c1ccc(Nc2ccc(F)cc2F)cc1Cl [Compound 266, 1-{3-[2-Chloro-4-(2,4-difluoro-phenylamino)-benzoyl]-4-methyl-phenyl}-3-cyclohexyl-urea]	54%
1 nM	1 nM	COCCNC(=O)c1ccc(C)c(C(=O)c2ccc(Nc3ccccc3N)cc2Cl)c1 [Compound 116, 3-[4-(2-Aminophenylamino)-2-chlorobenzoyl]-N-(2-methoxyethyl)-4-methylbenzamide]	95%
3.2 nM	2 nM	COc1ccc(C(=O)NCCF)cc1C(=O)c1ccc(Nc2c(F)cccc2F)cc1Cl [Compound 174]	64%
2.5 nM	0.4 nM	Cc1cc(Br)ccc1Nc1ccc(C(=O)c2cc(C(=O)NCCO)ccc2C)c(Cl)c1 [Compound 114, 3-[4-(4-Bromo-2-methylphenylamino)-2-chlorobenzoyl]-N-(2-hydroxyethyl)-4-methylbenzamide]	72%
1.8 nM	0.4 nM	Cc1ccc(C(=O)NCC(C)O)cc1C(=O)c1ccc(Nc2ccc(F)cc2F)cc1Cl (centres unmarked) [Compound 151, 3-[2-Chloro-4-(2,4-difluoro-phenylamino)-benzoyl]-N-(2-hydroxy-propyl)-4-methyl-benzamide]	99%
0.9 nM	0.6 nM	COc1ccc(C(=O)NCC(F)F)cc1C(=O)c1ccc(Nc2ccc(F)cc2F)cc1Cl [Compound 141, 3-[2-Chloro-4-(2,4-difluoro-phenylamino)-benzoyl]-N-(2,2-difluoro-ethyl)-4-methoxy-benzamide]	46%
–	–	Cc1ccc(C(=O)O)cc1C(=O)c1ccc(Nc2ccc(F)cc2F)cc1Cl [Compound 424, 3-[2-Chloro-4-(2,4-difluorophenylamino)benzoyl]-4-methylbenzoic acid]	44%
3.2 nM	1 nM	COc1ccc(C(=O)NCC(F)F)cc1C(=O)c1ccc(Nc2ccc(F)cc2)cc1Cl [Compound 196, 3-[2-Chloro-4-(4-fluoro-phenylamino)-benzoyl]-N-(2,2-difluoro-ethyl)-4-methoxy-benzamide]	66%
2.5 nM	1.3 nM	Cc1ccc(C(=O)NCC(C)C)cc1C(=O)c1ccc(Nc2ccc(Cl)cc2F)cc1Cl [Compound 129, 3-[2-Chloro-4-(4-chloro-2-fluoro-phenylamino)-benzoyl]-N-isobutyl-4-methyl-benzamide]	73%
0.5 nM	0.3 nM	CCOC(=O)CNC(=O)c1ccc(C)c(C(=O)c2ccc(Nc3ccc(Cl)cc3F)cc2Cl)c1 [Compound 123, {3-[2-Chloro-4-(4-chloro-2-fluoro-phenylamino)-benzoyl]-4-methyl-benzoylamino}acetic acid ethyl ester]	47%
2.8 nM	0.6 nM	Cc1ccc(C(=O)NCC(O)CO)cc1C(=O)c1ccc(Nc2ccc(F)cc2F)cc1Cl (centres unmarked) [Compound 152, 3-[2-Chloro-4-(2,4-difluoro-phenylamino)-benzoyl]-N-(2,3-dihydroxy-propyl)-4-methyl-benzamide]	99%
2.2 nM	0.9 nM	Cc1ccc(C(=O)NC(C)(CO)CO)cc1C(=O)c1ccc(Nc2ccc(F)cc2F)cc1Cl [Compound 157, 3-[2-Chloro-4-(2,4-difluoro-phenylamino)-benzoyl]-N-(2-hydroxy-1-hydroxymethyl-1-methyl-ethyl)-4-methyl-benzamide]	83%
2.5 nM	2.5 nM	Cc1ccc(C(=O)NCCF)cc1C(=O)c1ccc(Nc2ccc(F)cc2F)cc1 [Compound 163, 3-[4-(2,4-Difluoro-phenylamino)-benzoyl]-N-(2-fluoro-ethyl)-4-methyl-benzamide]	66%
0.5 nM	0.4 nM	Cc1ccc(C(=O)NCC(F)F)cc1C(=O)c1ccc(Nc2ccc(F)cc2F)cc1Cl [Compound 166]	83%
1.3 nM	2 nM	Cc1ccc(C(=O)NC(C)C)cc1C(=O)c1ccc(Nc2ccc(F)cc2F)cc1Cl [Compound 164, 3-[2-Chloro-4-(2,4-difluoro-phenylamino)-benzoyl]-N-isopropyl-4-methyl-benzamide]	76%
0.6 nM	0.2 nM	Cc1ccc(C(=O)NCCCO)cc1C(=O)c1ccc(Nc2ccc(F)cc2F)cc1Cl [Compound 155, 3-[2-Chloro-4-(2,4-difluoro-phenylamino)-benzoyl]-N-(3-hydroxy-propyl)-4-methyl-benzamide]	91%
1.3 nM	0.3 nM	Cc1ccc(C(=O)NCC(N)=O)cc1C(=O)c1ccc(Nc2ccc(F)cc2F)cc1Cl [Compound 145, N-Carbamoylmethyl-3-[2-chloro-4-(2,4-difluoro-phenylamino)-benzoyl]-4-methyl-benzamide]	94%
1.3 nM	0.3 nM	Cc1ccc(C(=O)NCCO)cc1C(=O)c1ccc(Nc2ccc(F)cc2F)cc1Cl [Compound 115, 3-[2-Chloro-4-(2,4-difluorophenylamino)benzoyl]-N-(2-hydroxyethyl)-4-methylbenzamide]	96%
2.7 nM	2 nM	Cc1ccc(C(=O)NCCO)cc1C(=O)c1ccc(Nc2ccc(Cl)cc2F)cc1Cl [Compound 120, 3-[2-Chloro-4-(4-chloro-2-fluoro-phenylamino)-benzoyl]-N-(2-hydroxy-ethyl)-4-methyl-benzamide]	86%
0.8 nM	0.5 nM	Cc1ccc(C(=O)NCCO)cc1C(=O)c1ccc(Nc2cccc(F)c2C)cc1Cl [Compound 186, 3-[2-Chloro-4-(3-fluoro-2-methyl-phenylamino)-benzoyl]-N-(2-hydroxy-ethyl)-4-methyl-benzamide]	92%
1.8 nM	0.5 nM	Cc1ccc(NC(=O)NCCO)cc1C(=O)c1ccc(Nc2ccc(F)cc2F)cc1Cl [Compound 260, 1-{3-[2-Chloro-4-(2,4-difluoro-phenylamino)-benzoyl]-4-methyl-phenyl}-3-(2-hydroxy-ethyl)-urea]	95%
1.4 nM	1 nM	COc1ccc(C(=O)NCCO)cc1C(=O)c1ccc(Nc2ccc(F)cc2F)cc1Cl [Compound 140, 3-[2-Chloro-4-(2,4-difluoro-phenylamino)-benzoyl]-N-(2-hydroxy-ethyl)-4-methoxy-benzamide]	76%
–	–	Cc1ccccc1C(=O)c1ccc(Nc2ccccc2N)cc1Cl [Ref. comp. a, 4-(2-aminophenylamino)-2-chloro-2′-methylbenzophenone, reference compound]	23%
